Experimental data reported in paper PMC4568418, “Identification of natural inhibitors of Entamoeba histolytica cysteine synthase from microbial secondary metabolites” (Frontiers in Microbiology, 2015).
Read-outs that look alike come from different tables or passages of the source.

Legend:
[1] = biological target: EhCS1 (Entamoeba histolytica, UniProt O15570); test: CS inhibitory activity, recombinant EhCS1 (acid-ninhydrin cysteine detection); format: biochemical
Experimental: (§1) The E. coli BL21 (DE3) cell introduced pET-EhCS (CS1, CS3) construct was used for protein expression. Each EhCSs protein was expressed by 1 mM isopropyl β-D-thiogalactopyranoside induction for 12 h at 30°C. After induction, the E. coli cell was harvested and re-suspended in the lysis buffer (50 mM Tris-HCl, pH 8.0, and 300 mM NaCl) containing 0.5 mM phenylmethylsulfonyl fluoride. The suspension was sonicated and centrifuged at 24,000 ×g for 30 min at 4°C. The histidine-tagged rEhCS proteins were purified from the supernatant fraction using a Ni^2+-NTA column and tagged proteins were eluted with 100–200 mM imidazole in 50 mM Tris-HCl, pH 8.0, and 300 mM NaCl. […].
(§2) For measurement of CS inhibitory activity, 10 μl of sample solution [dimethylsulfoxide (DMSO)/H2O = 1/1 solution] and 30 μl of reaction mixture, composed of 2 μl of 50 mM O-acetyL-L-serine, 2 μl of 50 mM Na2S, 12.5 μl of 200 mM Tris-HCl (pH 7.5), and 13.5 μl of water, was poured into each well of a flat-bottom 96-well plate. After 10 μl of enzyme solution (containing 0.1 μg of rEhCS1 or rEhCS3 in H2O) was added to each well, plates were incubated for 15 min at 37°C. The final concentrations of reagents in each well are; 2 mM O-acetyL-L-serine, 2 mM Na2S, and 50 mM Tris-HCl. The enzymatic reaction was stopped by adding 50 μl of acetic acid (>99.9%), and subsequently the reaction for cysteine detection was started by adding 50 μl of acid-ninhydrin reagent ([Gaitonde, 1967]). The mixture in each well was transferred to a 96-well PCR plate and heated at 95°C for 10 min. After the plate was cooled on ice, the mixture was transferred into a flat-bottom 96-well plate filled with 100 μl of ethanol (EtOH). Absorbance at 560 nm was measured by spectrophotometer (SH-9000Lab, Corona Electric, Ibaraki, Japan). […] To determine whether the sample interferes the acid-ninhydrin reagent reaction, 10 μl of sample solution, 10 μl of water, and 30 μl of 1 mM cysteine solution (cysteine hydrochloric acid salt in water) were mixed in a well of 96-well microtiter plate, and then 50 μl of acetic acid (>99.9%) and 50 μl of acid-ninhydrin reagent were added. The mixture was treated and measured the absorbance at 560 nm as above mentioned to check the effect of the sample to the color reaction.
(§3) Each 5 μl of DMSO solution (1 mg/ml, final concentration 100 μg/ml) of 316 library compounds and 5 μl of water (total 10 μl of DMSO/H2O = 1/1 solution per well) were poured into each well of a 96-well microtiter plate to screen for CS inhibitors. For screening microbial broths, 10 μl of the individual broth extract samples (50% EtOH solution) were poured into each well of a 96-well microtiter plate and dried up in vacuo. After drying, 10 μl of DMSO/H2O = 1/1 solution was added and dissolved. Samples showing more than 50% inhibitory activity and having no inhibitory activities against acid ninhydrin reaction were selected for further evaluation. The inhibition values were measured in duplicate or triplicate. […]; 2.0 to 250 μg/ml for deacetylkinamycin C, deoxyfrenolicin, nanaomycin A, tetracycline and patulin; 1.5 to 200 μg/ml for naphthacemycin A9; 3.1 to 400 μg/ml for xanthofulvin, terreinol and citromycetin; 0.06 to 200 μg/ml for exophillic acid.

[2] = biological target: EhCS3 (Entamoeba histolytica, UniProt Q401L7); test: CS inhibitory activity, recombinant EhCS3 (acid-ninhydrin cysteine detection); format: biochemical
Sequence of EhCS3 (Q401L7 entry or part of it): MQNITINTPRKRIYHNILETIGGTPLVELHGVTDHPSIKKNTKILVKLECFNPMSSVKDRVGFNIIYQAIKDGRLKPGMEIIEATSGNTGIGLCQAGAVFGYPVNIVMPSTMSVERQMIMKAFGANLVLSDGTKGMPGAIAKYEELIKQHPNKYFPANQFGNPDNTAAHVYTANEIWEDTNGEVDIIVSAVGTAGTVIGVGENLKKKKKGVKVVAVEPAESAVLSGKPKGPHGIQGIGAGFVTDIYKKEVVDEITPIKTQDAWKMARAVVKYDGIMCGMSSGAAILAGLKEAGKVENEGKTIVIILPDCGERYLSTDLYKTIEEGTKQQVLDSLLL
Experimental: as §1, §2, §3

[3] = test system: E. histolytica clonal strain HM-1:IMSS cl6 trophozoites; test: In vitro anti-amebic activity against trophozoites (WST-1 viability); details: 48 h
Experimental: Trophozoites were harvested in 3–4 days after inoculation of 1/30 to 1/12 of the total culture volume. After the cultures were chilled on ice for 5 min, trophozoites were collected by centrifugation at 500 ×g for 10 min at 4°C and washed twice with BI-S-33 medium. The obtained trophozoites were suspended in BI-S-33 medium and approximately 1 × 10^4 trophozoites in 200 μl of BI-S-33 medium were poured into each well of a 96-well plate and incubated for 2 h. Subsequently, the medium was removed and 200 μl of BI-S-33 medium or cysteine-deprived BI-S-33 medium containing 1% (v/v) penicillin/streptomycin (Life Technologies) together with test compounds (final concentrations; 0.1, 1, 10, 100 μg/ml for kerriamycin B, kerriamycin C, aggreticin, and xanthofulvin; 0.1, 1, 10, 50, 100 μg/ml for the other compounds) was added to each well and incubated under anaerobic conditions for 48 h. After incubation, the medium was removed and 90 μl of pre-warmed Opti-MEM I (Life Technologies) and 10 μl of WST-1 solution (Dojindo) were added to each well. Viability of trophozoites was detected with absorbance at 450 nm (SH-9000Lab, Corona Electric). Cytotoxicity was measured in triplicate. […] Metronidazole (Sigma–Aldrich, MO, USA) was used as positive control.

[4] = Cytotoxicity against MRC-5 cells (WST-8); format: cell-based; details: human fibroblast cells MRC-5, 2 days
Experimental: (§4) Human fibroblast cells, MRC-5, were plated on 96-well flat bottom plates at a density of 1.5 × 10^4 cells/well with 100 μl of MEM medium (Life Technologies, Grand Islands, NY, USA) containing 10% fetal bovine serum (Hana-nesco Bio, Tokyo, Japan) and 1% penicillin-streptomycin (Life Technologies) and incubated at 37°C with 5% CO2 for 2 days. Test compounds in 5 μl of 50% DMSO–H2O and 100 μl of MEM medium were mixed and added to each well. After 2 days cultivation at 37°C with 5% CO2, cell density and morphological changes were observed under a microscope. After observation, 10 μl of WST-8 solution (Dojindo, Kumamoto, Japan) was added to the cells and the plate was incubated at 37°C with 5% CO2 for 2 h. Then, absorbance at 450 nm was measured by spectrophotometer (SH-9000Lab, Corona Electric). Cytotoxicity was measured in duplicate. Staurosporine (our product, in Kitasato Natural Products Library) was used as a positive (cytotoxic) compound. […]; 0.075 to 10 μg/ml for deacetylkinamycin C, deoxyfrenolicin, nanaomycin A, and naphthacemycin A9; 3.1 to 200 μg/ml for tetracycline and patulin; 9.4 to 75 μg/ml for exophillic acid. IC50 values were calculated by the equation described in the reference ([Arita-Morioka et al., 2015]).

[5] = test system: MRC-5 cells; test: Cytotoxicity against MRC-5 cells (WST-8); format: cell-based; details: human fibroblast cells MRC-5, 2 days
Experimental: as §4

[6] = test system: semaphorin; design: method as in Kumagai et al., 2003; details: ref Kumagai et al., 2003; cited from earlier work
[7] = recombinant EhCS1, 15 min at 37°C, 2 mM O-acetyl-L-serine, 2 mM Na2S, read-out: IC50 CS1
[8] = recombinant EhCS3, 15 min at 37°C, 2 mM O-acetyl-L-serine, 2 mM Na2S, read-out: IC50 CS3
[9] = Entamoeba histolytica, read-out: Cytotoxicity against Entamoeba histolytica IC50, Cys (+)
[10] = Entamoeba histolytica, read-out: Cytotoxicity against Entamoeba histolytica IC50, Cys (–)

Sequence of EhCS1 (O15570 entry or part of it): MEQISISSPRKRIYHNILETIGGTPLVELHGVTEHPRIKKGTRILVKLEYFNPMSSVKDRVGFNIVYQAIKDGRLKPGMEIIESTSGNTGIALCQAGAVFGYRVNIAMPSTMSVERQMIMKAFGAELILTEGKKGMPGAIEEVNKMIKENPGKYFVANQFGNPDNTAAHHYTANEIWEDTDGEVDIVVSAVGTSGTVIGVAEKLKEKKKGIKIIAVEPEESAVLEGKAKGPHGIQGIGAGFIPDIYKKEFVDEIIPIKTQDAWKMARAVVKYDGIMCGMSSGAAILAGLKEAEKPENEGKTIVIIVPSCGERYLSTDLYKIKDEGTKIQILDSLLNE

Row | Compound | IC50 [1, 7] [µM] | IC50 [2, 8] [µM] | IC50 [3, 9] [µM] | IC50 [3, 10] [µM] | IC50 at 2 days [4] [µM] | further results
1 | C[C@@H]1O[C@@H](O[C@@H]2C[C@H](c3ccc4c(c3O)C(=O)C3=C(C4=O)[C@@]4(O[C@H]5CC[C@H](O)[C@H](C)O5)C(=O)C[C@](C)(O)C[C@@]4(O)C=C3)O[C@H](C)[C@H]2O)CC[C@@H]1O [Aggreticin] | 0.98 ± 0.05 | 0.64 ± 0.1 | 54 ± 4.8 | 18 ± 0.7 | 23 ± 0.6 | –
2 | Cc1cc(=O)c2c(o1)-c1c(cc(O)c(O)c1C(=O)O)OC2 [Citromycetin] | > 1400 | > 1400 | – | – | – | –
3 | Cc1c(O)cc2c(c1O)CO[C@@]1(CCCO1)C2=O [Terreinol] | > 1600 | > 1600 | – | – | – | –
4 | CN(C)[C@@H]1C(O)=C(C(N)=O)C(=O)[C@@]2(O)C(O)=C3C(=O)c4c(O)cccc4[C@@](C)(O)[C@H]3C[C@@H]12 [Tetracycline, reference compound] | – | – | – | – | 430 ± 4.3 | IC50 [1]: 170 ± 16 µM; IC50 [2]: 190 ± 9.5 µM
5 | CCCCCCCCCc1cc(OC(=O)c2c(CCCCCCCCC)cc(O)cc2O[C@@H]2O[C@H](CO)[C@@H](O)[C@H](O)[C@H]2O)cc(O)c1C(=O)O [Exophillic acid] | 24 ± 2.9 | – | > 140 | > 140 | > 100 | inhibition against EhCS3 [2]: no inhibition
6 | Kerriamycin B | 0.63 ± 0.07 | 0.31 ± 0.01 | – | – | – | IC50 ([3]; read-out: Cytotoxicity against Entamoeba histolytica IC50, Cys (+), BI-S-33 medium with cysteine, anaerobic): 26 ± 1.5 µM; IC50 ([3]; read-out: Cytotoxicity against Entamoeba histolytica IC50, Cys (–), cysteine-deprived BI-S-33 medium, anaerobic): 23 ± 0.3 µM; IC50 [5]: 21 ± 0.4 µM
7 | C[C@@]1(O)[C@H](O)c2c(c3c(=O)c4cccc(O)c4c(=O)c=3c2=[N+]=[N-])[C@H](O)[C@H]1O [Deacetylkinamycin C] | – | – | 140 ± 13 | 18 ± 10 | – | IC50 [1]: 21 ± 2.4 µM; IC50 [2]: 22 ± 3.7 µM; IC50 [4]: 2.3 ± 0.1 µM
8 | C[C@@H]1O[C@@H](CC(=O)O)CC2=C1C(=O)c1c(O)cccc1C2=O [Nanaomycin A] | 53 ± 3.9 | 65 ± 4.4 | 12 ± 0.4 | 0.8 ± 0.04 | 0.7 ± 0.04 | –
9 | COc1cc(C)c(-c2cc(OC)cc3c2C(=O)C2=C(C3=O)C(C)(C)c3cc(O)cc(O)c3C2=O)c(OC)c1 [Naphthacemycin A9] | 75 ± 1.8 | > 490 | > 390 | > 390 | 16 ± 0.6 | inhibition of EhCS3 (in words) [2]: no inhibition
10 | CC(=O)c1c(C)c(/C(O)=C2\COc3cc(O)c(O)c(C(=O)O)c3C2=O)cc2c(=O)c3c(C(=O)O)c(O)c(O)cc3oc12 [Xanthofulvin] | 7.9 ± 1.3 | 110 ± 8.2 | > 170 | > 170 | – | semaphorin inhibitor IC50 [6]: 0.09 µg/mL
11 | CCC[C@H]1O[C@H](CC(=O)O)CC2=C1C(=O)c1c(O)cccc1C2=O [Deoxyfrenolicin] | 57 ± 2 | 53 ± 1.1 | 1.3 ± 0.04 | 0.5 ± 0.1 | 4.7 ± 0.2 | –
12 | O=C1C=C2C(=CCOC2O)O1 (centres unmarked) [Patulin] | – | – | > 650 | 110 ± 12 | 110 ± 4.6 | IC50 [1]: 490 ± 81 µM; IC50 [2]: 470 ± 37 µM
